Assay results published in paper PMC9060753, “pDobz/pDobb protected diaminodiacid as a novel building block for peptide disulfide-bond mimic synthesis” (RSC Advances, 2019).
Bridge positions count the residues as written; N and C are the ends. Square brackets hold non-standard residues; d marks the D form. Triazole bridges read from a SMILES are 1,4-linked. Peptide text beside a SMILES is read from it. Dap(N3) = [N-]=[N+]=NC[C@H](N)C(=O)O; Pra = C#CC[C@H](N)C(=O)O

Columns and labels:
[1] = target: α-chymotrypsin (Bos taurus, UniProt P00766); conditions: pH 7.4
[2] = pH 7.4

NCCCC[C@@H]1NC(=O)[C@@H](Cc2c[nH]c3ccccc23)NC(=O)[C@@H]2CCCN2C(=O)[C@@H](NC(=O)[C@H](CC(=O)O)NC(=O)CN)Cn2cc(nn2)C[C@@H](C(N)=O)NC(=O)[C@H](Cc2c[nH]c3ccccc23)NC(=O)[C@@H]2CCCN2C1=O [Compound 14, [Ala1(&^1),Ala7(&^2)]contryphan-Vn[1,9][(&^1-1,4-[1,2,3]-triazolyl-&^2)]] (H-GD[Dap(N3)]P[dW]KPW[Pra]-NH2; triazole 3-9)
Difference of protease stability versus native model peptide contryphan-Vn [1]: No significant differences
Protease stability under α-chymotrypsin treatment (percent residual peptide) [1]: degraded completely
Reduction stability in aqueous DTT solution (percent residual peptide) [2]: remained intact

NCCCC[C@@H]1NC(=O)[C@@H](Cc2c[nH]c3ccccc23)NC(=O)[C@@H]2CCCN2C(=O)[C@@H](NC(=O)[C@H](CC(=O)O)NC(=O)CN)CSSC[C@@H](C(N)=O)NC(=O)[C@H](Cc2c[nH]c3ccccc23)NC(=O)[C@@H]2CCCN2C1=O [contryphan-Vn, Contryphan-Vn[1,9], reference compound] (H-GDCP[dW]KPWC-NH2; disulfide 3-9)
Protease stability under α-chymotrypsin treatment (percent residual peptide) [1]: degraded completely
Reduction stability in aqueous DTT solution (percent residual peptide) [2]: completely reduced
